{"source": "patent US20240108740A1", "about": "“THERAPEUTIC COMPOSITIONS INCLUDING SPN10 AND USES THEREOF” (Stealth BioTherapeutics Inc., priority 2022, published 2024)", "key": {"Sprague Dawley rats": {"system": "Sprague Dawley rats", "experiment": "Example 45: hypermetabolism after burn injury (indirect calorimetry)", "type": "in vivo, rat", "conditions": "30% total body surface area burn; IV every 12 hours for three days", "experimental": "Sprague Dawley rats will be randomized into the following groups; sham-burn (SB), burn with saline treatment (B), burn with peptide conjugate-treatment (BP), burn with aromatic-cationic peptides (BP2), burn with SPN10(s) (BP3), burn with SPN10(s)+aromatic-cationic peptides (BP4). Catheters will be surgically placed into jugular vein and carotid artery. Band BP, BP2, BP3 and BP4 animals will receive 30% total body surface area full thickness burns by immersing the dorsal part into 100° C. water for 12 seconds with immediate fluid resuscitation. […] The EE of the animals will be monitored for 12 hours in a TSE Indirect Calorimetry System (TSE Co., Germany)."}, "[1]": {"experiment": "Example 16: H2O2 scavenging, luminol-induced chemiluminescence", "type": "biochemical", "conditions": "H2O2 4.4 nmol", "experimental": "The effect of peptide conjugates, aromatic-cationic peptides, or SPN10(s) (with or without aromatic-cationic peptides) on H2O2 will be measured by luminol-induced chemiluminescence. Luminol (25 μM) and horseradish peroxidase (0.7 IU) will be added to a solution of H2O2 (4.4 nmol) followed by peptide conjugates; aromatic-cationic peptides; or SPN10(s) alone or in combination with aromatic-cationic peptides. Chemiluminescence will be monitored with a Chronolog Model 560 aggregometer (Havertown, PA) for 20 minutes at 37° C."}, "Guinea pig hearts": {"system": "Guinea pig hearts", "experiment": "Example 14: ischemia-reperfusion-induced myocardial stunning", "experimental": "Guinea pig hearts will be rapidly isolated, and the aorta will be cannulated in situ and perfused in a retrograde fashion with an oxygenated Krebs-Henseleit at constant pressure (40 cm H2O). Contractile force will be measured with a small hook inserted into the apex of the left ventricle and a silk ligature connected to a force-displacement transducer. Coronary flow will be measured by timing the collection of pulmonary artery effluent.\nHearts will be perfused with peptide conjugates (1-100 nM); aromatic-cationic peptides (an equivalent molar dose of aromatic-cationic peptide based on the concentration of the aromatic-cationic peptide administered in the peptide conjugate treatment group); SPN10(s) (an equivalent molar dose of SPN10 based on the concentration of SPN10 administered in the peptide conjugate treatment group); or SPN10(s) in combination with aromatic-cationic peptides (e.g., an equivalent molar dose of SPN10 based on the concentration of SPN10 administered in the peptide conjugate treatment group and an equivalent molar dose of aromatic-cationic peptide based on the concentration of aromatic-cationic peptide administered in the peptide conjugate treatment group) for 30 minutes and then subjected to 30 minutes of global ischemia. Reperfusion will […] be performed using perfusion buffer lacking both peptide conjugates and SPN10(s) (with or without aromatic-cationic peptides)."}, "CD-1 mice": {"system": "CD-1 mice", "experiment": "Example 7: streptozotocin (STZ)-induced diabetes, renal damage", "type": "in vivo, mouse", "conditions": "STZ-treated mice", "experimental": "Streptozotocin (STZ) will be used to induce diabetes in mice. […] groups of CD-1 mice will be studied: Group I—no STZ treatment; Group II—STZ (50 mg/kg, i.p.) will be given once daily for 5 days; Group III—STZ (50 mg/kg, i.p.) will be given once daily for 5 days, +peptide conjugates (3 mg/kg, i.p.) will be given once daily for 16 days; Group IV—STZ (50 mg/kg, i.p.) will be given once daily for 5 days, +aromatic-cationic peptides (an equivalent molar dose of aromatic-cationic peptide based on the concentration of the aromatic-cationic peptide administered in the peptide conjugate treatment group) will be given once daily for 16 days; Group V—STZ (50 mg/kg, i.p.) will be given once daily for 5 days, +SPN10 (an equivalent molar dose of SPN10 based on the concentration of SPN10 administered in the peptide conjugate treatment group) will be given once daily for 16 days; Group VI—STZ (50 mg/kg, i.p.) will be given once daily for 5 days, +SPN10(s) in combination with aromatic-cationic peptides (e.g., an equivalent molar dose of SPN10 based on the concentration of SPN10 administered in the peptide conjugate treatment group and an equivalent molar dose of aromatic-cationic peptide based on the concentration of aromatic-cationic peptide administered in the peptide conjugate treatment group) will be given once daily for 16 days. It is anticipated that STZ treatment will result in a progressive increase in blood glucose. Animals will be sacrificed after 3 weeks and kidney tissues preserved for histopathology. Kidney sections will be examined by Periodic Schiff (PAS) staining for renal tubular brush border.\nIt is anticipated that STZ treatment will induce significant apoptosis in tubular epithelial cells. Kidney sections will be examined for apoptosis using a TUNEL assay as described herein. It is anticipated that kidney sections from mice treated with STZ will show a large number of apoptotic nuclei in the proximal tubules, compared to non-STZ treated controls."}, "cytochrome c": {"target": "cytochrome c (Homo sapiens, UniProt P99999)", "sequence (P99999 whole entry, species assumed)": "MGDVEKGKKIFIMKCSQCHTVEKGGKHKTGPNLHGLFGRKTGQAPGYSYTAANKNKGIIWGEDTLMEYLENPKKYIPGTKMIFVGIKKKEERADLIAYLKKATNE", "experiment": "Kinetics of cytochrome c reduction (absorbance at 550 nm)", "type": "biochemical", "description": "It is hypothesized that the distribution of SPN10(s) or peptide conjugates among the protein complexes in the IMM allows it to serve as additional an relay station to facilitate ET. […] Addition of N-acetylcysteine (NAC) as a reducing agent is anticipated to result in time-dependent increase in absorbance at 550 nm."}, "isolated mitochondria": {"system": "isolated mitochondria", "experiment": "Example 12: MPT induced by Ca^2+ overload and 3NP in isolated mitochondria", "experimental": "3-Nitropropionic acid (3NP) is an irreversible inhibitor of succinate dehydrogenase in complex II of the electron transport chain. It is anticipated that the addition of 3NP (1 mM) to isolated mitochondria will cause the loss of mitochondrial membrane potential and the onset of MPT."}}, "note": "Residues, ends and D or L forms follow the SMILES beside them."}
{"smiles": "N=C(N)NCCC[C@H](NC(=O)[C@@H](N)Cc1c[nH]c2ccccc12)C(=O)N[C@@H](Cc1c[nH]c2ccccc12)C(=O)N[C@@H](CCCCN)C(N)=O", "note": "[SPN10, H-L-Trp-L-Arg-L-Trp-L-Lys-NH2] (H-WRWK-NH2)", "values": [{"measurement": "increase in energy expenditure (EE) after burn", "setting": "Sprague Dawley rats", "value": "attenuate or prevent this effect"}, {"measurement": "luminol response (H2O2 scavenging)", "setting": "[1]", "value": "dose-dependently inhibit the luminol response"}, {"measurement": "cardiac stunning", "setting": "Guinea pig hearts", "value": "complete inhibition of cardiac stunning"}, {"measurement": "coronary flow during reperfusion", "setting": "Guinea pig hearts", "value": "well-sustained throughout the reperfusion period"}, {"measurement": "heart rate", "setting": "Guinea pig hearts", "value": "no decrease in heart rate"}, {"measurement": "contractile force during the reperfusion period", "setting": "Guinea pig hearts; 30 minutes perfusion, 30 minutes global ischemia", "value": "improved compared to untreated controls"}, {"measurement": "apoptotic cells in the proximal tubule (TUNEL)", "setting": "CD-1 mice", "value": "dramatically reduce apoptotic cells"}, {"measurement": "tubular epithelial nuclei", "setting": "CD-1 mice", "value": "appear normal"}, {"measurement": "loss of brush border in proximal tubules (PAS)", "setting": "CD-1 mice; daily treatment", "value": "prevent the loss of brush border"}, {"measurement": "reduction of cytochrome c by compound alone", "setting": "cytochrome c; 100 μM, without NAC", "value": "will not reduce cytochrome c"}, {"measurement": "rate of NAC-induced cytochrome c reduction", "setting": "cytochrome c; with N-acetylcysteine (NAC)", "value": "dose-dependently increase"}, {"measurement": "tolerance of mitochondria to cumulative Ca^2+ challenges", "setting": "isolated mitochondria", "value": "dose-dependently increase the tolerance"}, {"measurement": "onset of MPT after Ca^2+", "setting": "isolated mitochondria; 10 μM pre-treatment for 2 minutes prior to Ca^2+", "value": "prevent the onset of MPT"}, {"measurement": "onset of MPT induced by 3NP", "setting": "isolated mitochondria; 3NP 1 mM", "value": "dose-dependently delay the onset of MPT"}]}
